In patent US20250368628A1, “METHODS AND COMPOUNDS FOR MODULATING INHERITED GENETIC DISEASES” (Design Therapeutics, Inc., priority 2022, published 2025):

What was measured:
[1] = tested on: Myotonic Dystrophy 1 affected patient fibroblasts (Coriel GM04602; 1600 CTG repeats); assay: DM1 foci reduction assay (EC50 assay; CAG10-Cy3 FISH, foci per nucleus); type: cell-based; conditions: Homo sapiens, Fibroblast; DM1 patient fibroblasts, foci per nucleus, 48 h treatment; read-out: DM1 EC50, 48 h
Procedure, shortened: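 Foci per nucleus counted by 20× imaging of 4 areas per well, after overnight FISH with 5 nM CAG10-Cy3 and DAPI staining of fixed, permeabilized cells. DM1 fibroblasts (GM04602, 1600 CTG) were dosed 48 h at 37 °C, 8 points, 3-fold dilutions, 3 μM top concentration.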

[2] = tested on: F35T cells; assay: Foci reduction in FECD (CAG10-Cy3 FISH, foci per nucleus); type: cell-based; conditions: F35T cells, foci per nucleus, 48 h treatment; read-out: FECD EC50, 48 h
Procedure, shortened: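 Foci per nucleus were counted by imaging after overnight CAG10-Cy3 FISH at 37 °C (30% formamide, 2×SSC) with DAPI counterstain, on PFA-fixed, ethanol-permeabilized F35T cells. The cells, seeded at 5000 per well in supplemented Opti-MEM, had received 8-point compound dilutions for 48 h at 37 °C.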

`CCCCn1cc(NC(=O)c2nc(NC(=O)CCNC(=O)c3cc(NC(=O)c4nccn4C)cn3C)cn2C)cc1C(=O)NC[C@H](N)CC(=O)Nc1cn(C)c(C(=O)NCCC(=O)Nc2cc(C(=O)Nc3cn(C)c(C(=O)NCCCCN(C)C)n3)n(C)c2)n1` [Compound B-423] was tested, and the EC50 [1] was 100 to 500 nM and the EC50 [2] was greater than 1000 nM.
`CN(C)CCCCNC(=O)c1nc(NC(=O)c2cc(NC(=O)CCNC(=O)c3nc(NC(=O)C[C@H](CNC(=O)c4cc(NC(=O)c5nc(NC(=O)CCNC(=O)c6cc(NC(=O)c7nccn7C)cn6C)cn5C)cn4C)NC(=O)c4ccccc4)cn3C)cn2C)cn1C` [Compound B-424] showed an EC50 [1] of 100 to 500 nM and an EC50 [2] of 100 to 500 nM.
In the case of `CCCCCCn1cc(NC(=O)c2nc(NC(=O)CCNC(=O)c3cc(NC(=O)c4nccn4C)cn3C)cn2C)cc1C(=O)NCCCC(=O)Nc1cn(C)c(C(=O)NCCC(=O)Nc2cc(C(=O)Nc3cn(C)c(C(=O)NCCC(=O)N4CCN(C)CC4)n3)n(C)c2)n1` [Compound B-425], the EC50 [1] is reported as less than 100 nM and the EC50 [2] is reported as less than 100 nM.
With `CCCCn1cc(NC(=O)c2nc(NC(=O)CCNC(=O)c3cc(NC(=O)c4nccn4C)cn3C)cn2C)cc1C(=O)NCCCC(=O)Nc1cn(C)c(C(=O)NCCC(=O)Nc2cc(C(=O)Nc3cn(C)c(C(=O)NCCC(=O)N4CCN(C)CC4)n3)n(C)c2)n1` [Compound B-426] the EC50 [1] was 100 to 500 nM and the EC50 [2] was 100 to 500 nM.
Work on `CN1CCN(C(=O)CCNC(=O)c2nc(NC(=O)c3cc(NC(=O)CCNC(=O)c4nc(NC(=O)CCCNC(=O)c5cc(NC(=O)c6nc(NC(=O)CCNC(=O)c7cc(NC(=O)c8nccn8C)cn7C)cn6C)cn5CCCCO)cn4C)cn3C)cn2C)CC1` [Compound B-427] yielded an EC50 [1] of 100 to 500 nM and an EC50 [2] of less than 100 nM.
`CN(C)CCCCn1cc(NC(=O)c2nc(NC(=O)CCNC(=O)c3cc(NC(=O)c4nccn4C)cn3C)cn2C)cc1C(=O)NCCCC(=O)Nc1cn(C)c(C(=O)NCCC(=O)Nc2cc(C(=O)Nc3cn(C)c(C(=O)NCCC(=O)N4CCCCC4)n3)n(C)c2)n1` [Compound B-428] gave an EC50 [1] of less than 100 nM and an EC50 [2] of less than 100 nM.
In the case of `CCCn1cc(NC(=O)c2nc(NC(=O)CCNC(=O)c3cc(NC(=O)c4nccn4C)cn3C)cn2C)cc1C(=O)NCCCC(=O)Nc1cn(C)c(C(=O)NCCC(=O)Nc2cc(C(=O)Nc3cn(C)c(C(=O)NCCC(=O)N4CCN(C)CC4)n3)n(C)c2)n1` [Compound B-429], the EC50 [1] is reported as less than 100 nM and the EC50 [2] is reported as less than 100 nM.
In the case of `CN(C)CCCn1cc(NC(=O)c2nc(NC(=O)CCNC(=O)c3cc(NC(=O)c4nccn4C)cn3C)cn2C)cc1C(=O)NCCCC(=O)Nc1cn(C)c(C(=O)NCCC(=O)Nc2cc(C(=O)Nc3cn(C)c(C(=O)NCCC(=O)N4CCCCC4)n3)n(C)c2)n1` [Compound B-430], the EC50 [1] is reported as less than 100 nM and the EC50 [2] is reported as less than 100 nM.
`CCCNC(=O)CCNC(=O)c1nc(NC(=O)c2cc(NC(=O)CCNC(=O)c3nc(NC(=O)CCCNC(=O)c4cc(NC(=O)c5nc(NC(=O)CCNC(=O)c6cc(NC(=O)c7nccn7C)cn6C)cn5C)cn4CCCO)cn3C)cn2C)cn1C` [Compound B-431] was tested, and the EC50 [1] was less than 100 nM and the EC50 [2] was less than 100 nM.
For `CCCNC(=O)CCNC(=O)c1nc(NC(=O)c2cc(NC(=O)CCNC(=O)c3nc(NC(=O)CCCNC(=O)c4cc(NC(=O)c5nc(NC(=O)CCNC(=O)c6cc(NC(=O)c7nccn7C)cn6C)cn5C)cn4CCCOC(=O)c4ccccc4)cn3C)cn2C)cn1C` [Compound B-432], the EC50 [1] was less than 100 nM and the EC50 [2] was less than 100 nM.
Work on `CCCCn1cc(NC(=O)c2nc(NC(=O)CCNC(=O)c3cc(NC(=O)c4nccn4C)cn3C)cn2C)cc1C(=O)NCCCC(=O)Nc1cn(C)c(C(=O)NCCC(=O)Nc2cc(C(=O)Nc3cn(C)c(C(=O)NCCC(=O)N4CCCCC4)n3)n(C)c2)n1` [Compound B-433] yielded an EC50 [1] of less than 100 nM and an EC50 [2] of less than 100 nM.
Compound `CCCNC(=O)c1nc(NC(=O)c2cc(NC(=O)CCNC(=O)c3nc(NC(=O)CC4(CNC(=O)c5cc(NC(=O)c6nc(NC(=O)CCNC(=O)c7cc(NC(=O)c8nccn8C)cn7C)cn6C)cn5C)CNC4)cn3C)cn2C)cn1C` [Compound B-439] has an EC50 [1] of 100 to 500 nM and an EC50 [2] of 100 to 500 nM.
